The record followed here is patent US4243408A, “Herbicidal N-triazolylmethyl-substituted alpha-haloacetanilide” (Chevron Research Company, priority 1978, dated 1981).

Holding throughout (assay type): in vivo
For assay [1], the system named is Pigweed (Amaranthus retroflexus). The assay can be described thus: Pre-Emergent Test, herbicidal effectiveness. Conditions: pre-emergence, 504 h, 33 micrograms per cm^2, 3 weeks, 0-to-100 scale, read-out: Herbicidal Effectiveness, % Control Pre, P. In a few lines: (§1)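 Seeds planted in soil, then surface sprayed pre-emergence at 33 micrograms/cm^2 with compound in acetone/surfactant/water; pots watered and kept in greenhouse. Herbicidal effect scored visually on 0–100 scale (0 no phytotoxicity, 100 complete kill).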

Assay [2] concerns Wild Oats (Avena fatua). As to the kind of experiment: Pre-Emergent Test, herbicidal effectiveness. Conditions: pre-emergence, 504 h, 33 micrograms per cm^2, 3 weeks, 0-to-100 scale, read-out: Herbicidal Effectiveness, % Control Pre, O. In a few lines: as §1
For assay [3], the system named is Crabgrass (Digitaria sanguinalis). As to the kind of experiment: Pre-Emergent Test, herbicidal effectiveness. To be noted: pre-emergence, 504 h, 33 micrograms per cm^2, 3 weeks, 0-to-100 scale, read-out: Herbicidal Effectiveness, % Control Pre, C. In a few lines:
as §1

The subject of assay [4] is Watergrass (Echinochloa). As to the kind of experiment: Pre-Emergent Test, herbicidal effectiveness. Conditions: pre-emergence, 504 h, 33 micrograms per cm^2, 3 weeks, 0-to-100 scale, read-out: Herbicidal Effectiveness, % Control Pre, W. In a few lines:
as §1

For assay [5], the system named is Lambsquarter (Chenopodium album). The assay can be described thus: Pre-Emergent Test, herbicidal effectiveness. To be noted: pre-emergence, 504 h, 33 micrograms per cm^2, 3 weeks, 0-to-100 scale, read-out: Herbicidal Effectiveness, % Control Pre, L. In a few lines: as §1
In assay [6] the test system is Mustard (Brassica arvensis). As to the kind of experiment: Pre-Emergent Test, herbicidal effectiveness. To be noted: pre-emergence, 504 h, 33 micrograms per cm^2, 3 weeks, 0-to-100 scale. In a few lines:
as §1

Assay [7] relates to Pigweed (Amaranthus retroflexus). The assay can be described thus: Post-Emergent Test, herbicidal effectiveness. Conditions: post-emergence, 504 h, 33 micrograms per cm^2, 3 weeks, 0-to-100 scale, read-out: Herbicidal Effectiveness, % Control Post, P. In a few lines:
(§2)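 Sprayed at 5000 ppm in acetone/water with nonionic surfactant, 33 micrograms/cm^2, onto two pots of 24-day-old plants; kept in greenhouse with base watering. Phytotoxicity rated after 3 weeks on a 0-100 scale (0 no effect, 100 complete kill).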

Assay [8] has as its system Wild Oats (Avena fatua). As to the kind of experiment: Post-Emergent Test, herbicidal effectiveness. Conditions: post-emergence, 504 h, 33 micrograms per cm^2, 3 weeks, 0-to-100 scale, read-out: Herbicidal Effectiveness, % Control Post, O. In a few lines:
as §2

The subject of assay [9] is Crabgrass (Digitaria sanguinalis). As to the kind of experiment: Post-Emergent Test, herbicidal effectiveness. Conditions: post-emergence, 504 h, 33 micrograms per cm^2, 3 weeks, 0-to-100 scale, read-out: Herbicidal Effectiveness, % Control Post, C. In a few lines: as §2
The test system of assay [10] is Watergrass (Echinochloa). The assay can be described thus: Post-Emergent Test, herbicidal effectiveness. Conditions: post-emergence, 504 h, 33 micrograms per cm^2, 3 weeks, 0-to-100 scale, read-out: Herbicidal Effectiveness, % Control Post, W. In a few lines: as §2
For assay [11], the system named is Lambsquarter (Chenopodium album). The assay can be described thus: Post-Emergent Test, herbicidal effectiveness. Conditions: post-emergence, 504 h, 33 micrograms per cm^2, 3 weeks, 0-to-100 scale, read-out: Herbicidal Effectiveness, % Control Post, L. In a few lines: as §2
Assay [12] relates to Mustard (Brassica arvensis). As to the kind of experiment: Post-Emergent Test, herbicidal effectiveness. Conditions: post-emergence, 504 h, 33 micrograms per cm^2, 3 weeks, 0-to-100 scale. In a few lines: as §2

As for `CSc1nnc(CNc2c(C)cccc2C)o1` [Compound 24A, 2-(2,6-dimethylphenylaminomethyl)-5-methylthio-1,3,4-oxadiazole], the pest or weed control at 33 µg/cm2 (in assay [1]; in the assay on Wild Oats (Avena fatua) [2]; in assay [3]; in the assay with Watergrass (Echinochloa) [4]; in assay [5]; in assay [6]) was 0% in each case. The pest or weed control at 5000 µg/mL, 33 µg/cm2 (in assay [7]; in the assay with Wild Oats (Avena fatua) [8]; in [9]; in the assay with Watergrass (Echinochloa) [10]; in [11]; in [12]) was 0% throughout.
As for `Cc1nnc(CNc2c(C)cccc2C)o1` [Compound 1A, 2-(2,6-dimethylphenylaminomethyl)-5-methyl-1,3,4-oxadiazole], the pest or weed control at 33 µg/cm2 (in assay [1]; in the assay on Wild Oats (Avena fatua) [2]; in assay [3]; in the assay with Watergrass (Echinochloa) [4]; in assay [5]; in [6]) was 0% throughout. Moreover, the pest or weed control at 5000 µg/mL, 33 µg/cm2 (in assay [7]; in the assay with Wild Oats (Avena fatua) [8]; in assay [9]; in the assay on Watergrass (Echinochloa) [10]; in assay [11]; in assay [12]) was 0% each time.
On to `Cc1nnc(CCNc2c(C)cccc2C)[nH]1` [Compound 10A], for which the pest or weed control at 33 µg/cm2 (in assay [1]; in the assay with Wild Oats (Avena fatua) [2]; in assay [3]; in the assay with Watergrass (Echinochloa) [4]; in assay [5]; in assay [6]) was 0% throughout. Further, the pest or weed control at 5000 µg/mL, 33 µg/cm2 (in assay [7]; in the assay with Wild Oats (Avena fatua) [8]; in assay [9]; in the assay with Watergrass (Echinochloa) [10]; in assay [11]; in assay [12]) was 0% each time.
Regarding `CCc1cccc(CC)c1NCc1nnc(C)[nH]1` [Compound 5A], the pest or weed control at 33 µg/cm2 (in assay [1]; with Wild Oats (Avena fatua) [2]; in [3]; in the assay with Watergrass (Echinochloa) [4]; in assay [5]; in assay [6]) was 0% throughout. Further, the pest or weed control at 5000 µg/mL, 33 µg/cm2 (in assay [7]; with Wild Oats (Avena fatua) [8]; in [9]; in the assay on Watergrass (Echinochloa) [10]; in assay [11]; in [12]) was 0% throughout.
With `CSc1nnc(CN(C(=O)CCl)c2c(C)cccc2C)n1C` [Compound 14B], the pest or weed control at 33 µg/cm2 in assay [1] came to 0%; in the assay with Wild Oats (Avena fatua) [2] it was 10%; in [3] it was 90%; with Watergrass (Echinochloa) [4] it was 100%; in assay [5], 0%; in assay [6] it was 0%. Further, the pest or weed control at 5000 µg/mL, 33 µg/cm2 (in assay [7]; in the assay on Wild Oats (Avena fatua) [8]; in assay [9]; in the assay with Watergrass (Echinochloa) [10]; in assay [11]; in [12]) was 0% each time.
Turning to `CCc1cccc(CC)c1N(Cc1nnc(SC)n1C)C(=O)CCl` [Compound 23B], the pest or weed control at 33 µg/cm2 (in [1]; in the assay on Wild Oats (Avena fatua) [2]; in assay [3]; with Watergrass (Echinochloa) [4]; in assay [5]; in [6]) was 0% each time. In addition, the pest or weed control at 5000 µg/mL, 33 µg/cm2 (in assay [7]; in the assay with Wild Oats (Avena fatua) [8]; in assay [9]; with Watergrass (Echinochloa) [10]; in assay [11]; in assay [12]) was 0% in each case.
As for `CCc1cccc(C)c1NCc1nnc[nH]1` [Compound 17A], the pest or weed control at 33 µg/cm2 (in assay [1]; in the assay on Wild Oats (Avena fatua) [2]; in assay [3]; with Watergrass (Echinochloa) [4]; in [5]; in [6]) was 0% in each case. In addition, the pest or weed control at 5000 µg/mL, 33 µg/cm2 (in [7]; with Wild Oats (Avena fatua) [8]; in assay [9]; in the assay with Watergrass (Echinochloa) [10]; in assay [11]; in [12]) was 0% throughout.
Take `Cc1cccc(C)c1N(Cc1nnc(S)[nH]1)C(=O)CCl` [Compound 18B]: the pest or weed control at 33 µg/cm2 (in assay [1]; in the assay on Wild Oats (Avena fatua) [2]; in assay [3]; with Watergrass (Echinochloa) [4]; in [5]; in assay [6]) was 0% in each case. Further, the pest or weed control at 5000 µg/mL, 33 µg/cm2 (in assay [7]; with Wild Oats (Avena fatua) [8]; in assay [9]; in the assay with Watergrass (Echinochloa) [10]; in assay [11]; in assay [12]) was 0% each time.
Regarding `Cc1cccc(C)c1N(Cc1nnc[nH]1)C(=O)CCl` [Compound 9B], the pest or weed control at 33 µg/cm2 in [1] amounted to 100%; with Wild Oats (Avena fatua) [2] it was 100%; in assay [3] it was 100%; with Watergrass (Echinochloa) [4], 100%; in assay [5] it was 100%; in [6] it was 55%. Besides, the pest or weed control at 5000 µg/mL, 33 µg/cm2 is 0% in assay [7]; 65% in the assay on Wild Oats (Avena fatua) [8]; 70% in assay [9]; 75% with Watergrass (Echinochloa) [10]; 25% in [11]; 25% in assay [12].
For the compound `Cc1nnc(CN(C(=O)CCl)c2c(C)cccc2C)[nH]1` [Compound 2B, N-(5-methyl-1,2,4-triazol-3-ylmethyl)-2,6-dimethyl-alpha-chloroacetanilide], the pest or weed control at 33 µg/cm2 amounted to 88% in assay [1]; 100% in the assay on Wild Oats (Avena fatua) [2]; 100% in assay [3]; 100% in the assay on Watergrass (Echinochloa) [4]; 98% in assay [5]; 75% in assay [6]. Also, the pest or weed control at 5000 µg/mL, 33 µg/cm2 in assay [7] was 32%; in the assay on Wild Oats (Avena fatua) [8], 30%; in assay [9], 20%; in the assay with Watergrass (Echinochloa) [10], 75%; in assay [11] it was 50%; in assay [12] it was 25%.
